“And” between values parts separate entries of the source, which are not always exact repeats. Equal entries are not always repeated. Where two headings read alike, the source gives them in different places.
How the values were obtained:
inflammation = conditions: cited from earlier work
[1] = test system: flushing induced by nicotinic acid; assay type: in vivo, human
Procedure: Two weeks later, the same subjects were administered 40 of mg aspirin for each of four days.

[2] = test system: PGD-M, the major urinary metabolite of PGD2; assay: Urinary excretion of PGD-M after nicotinic acid (Example 1, FIGS. 1, 2); assay type: in vivo, human
Procedure: (§1) Two weeks later, the same subjects were administered 40 of mg aspirin for each of four days. […] Urinary excretion of PGD-M was much lower (FIG. 2), confirming the suppressive activity of aspirin on PGD2 release. Release of PGF2 after aspirin pretreatment (40 mg) was approximately 10% of baseline (FIG. 3).

PGF2 release = assay: PG release following topical nicotinic acid with or without aspirin pretreatment (FIG. 3); assay type: in vivo, human; conditions: aspirin pretreatment (40 mg) (FIG. 3)
Procedure: as §1

[3] = test system: flushing induced by nicotinic acid; assay: Niacin flushing after bid aspirin pretreatment (Example 2); assay type: in vivo, human
Procedure: Three subjects were administered 40 mg of aspirin twice daily (i.e., bid) in the morning and evening for three days.

[4] = test system: human macrophage cell line THP-1; assay: PG release from THP-1 cells in vitro (Examples 3 and 6); assay type: cell-based; conditions: for IC50: Homo sapiens
Excerpt: Indomethacin was used in place of aspirin to inhibit PG production in THP-1 cells in vitro as in Example 3.

[5] = test system: flushing induced by niacin; assay: Niacin flushing after sustained release aspirin pretreatment (Example 7); assay type: in vivo, human
[6] = test system: flushing induced by nicotinic acid; assay: Cutaneous blood flow (FLUX) by laser Doppler, flushing severity and duration (Example 8); assay type: in vivo, human; conditions: mean ± S.D., n = 14
Procedure: (§2) Fourteen healthy male subjects completed the study. After randomization, subjects were given a placebo or 81 mg of aspirin bid for three days. The study was double-blind.
(§3) Room temperature and humidity were constant during the trial.
(§4) Flushing was measured in three ways: (1) quantitatively using laser Doppler, (2) subjectively via questionnaire, and (3) by measuring a biochemical marker of flushing, a stable metabolite of prostaglandin D2. Complete pharmacokinetic parameters in timed blood samples after oral administration were also measured in plasma and urine. Flushing, as measured by continuous and simultaneous recording of cutaneous blood flow on each side of the neck using laser Doppler techniques (Moor Instruments), provides an arbitrary representation of cutaneous blood flow defined as FLUX. Flux is expressed in arbitrary units (AU) from baseline (FLUXpeak-FLUXbaseline; see FIG. 11B). Duration of flush is the time in minutes from the beginning to the end of Flux shift in the DRTSOFT plot.

[7] = test system: flushing induced by nicotinic acid; assay: Local skin temperature change (Example 8); assay type: in vivo, human; conditions: mean ± S.D.; n = 14; p = 0.016 (paired t test)
Procedure: as §2, §3

[8] = test system: flushing induced by nicotinic acid; assay: Rating of flushing by subject (Example 8); assay type: in vivo, human; conditions: number of subjects; n = 14; p < 0.05 (Wilcoxon)
Procedure: as §2, §3, §4

[9] = test system: flushing induced by nicotinic acid; assay: Rating of flushing by investigator (Example 8); assay type: in vivo, human; conditions: number of subjects; n = 14; p < 0.05 (Wilcoxon)
Procedure: as §2, §3, §4

[10] = test system: prostaglandin synthetase (cyclooxygenase); conditions: Flower, Pharmacol. Rev. 26:33 (1974); cited from earlier work
[11] = test system: nicotinic acid-induced flush; conditions: pretreatment at 4.5 and 0.5 hr; indomethacin 25 or 50 mg/kg; aspirin 50, 100, or 200 mg/kg; cited from earlier work
[12] = test system: cutaneous flush induced by nicotinic acid; conditions: 975 mg total: 650 mg at 1 hr and 325 mg at 0.5 hr prior to nicotinic acid; cited from earlier work
[13] = test system: niacin-induced cutaneous reactions; conditions: cited from earlier work
platelet aggregation = conditions: cited from earlier work
[14] = test system: PG production in other cell types; conditions: cited from earlier work
[15] = test system: eicosanoid metabolites in urine; conditions: oral administration (FIG. 8)
Excerpt: (§5) Langerhans cells, the macrophages of skin, may differ from other macrophages in releasing lesser amounts of eicosanoids other than PGD2.

[16] = test system: release of eicosanoids from skin; conditions: topical niacin (FIG. 7)
Excerpt: as §5

[17] = test system: human circulating monocytes; conditions: FIG. 4
[18] = within days after initiating therapy; cited from earlier work
[19] = test system: prostaglandin F2, a metabolite of D; conditions: cited from earlier work
[20] = Physician's Desk Reference, 51st ed.
[21] = 325 mg aspirin 30 minutes prior to niacin
[22] = initial testing, out of 306 patients, over 33 months

## O=C(O)Cc1ccccc1Nc1c(Cl)cccc1Cl [Diclofenac]
inflammation; Goodman and Gilman, 9th ed.
  Minimum Anti-inflammatory Dosage: 100 mg

## CCc1cccc2c3c([nH]c12)C(CC)(CC(=O)O)OCC3 (stereo not shown) [Etodolac]
inflammation; Goodman and Gilman, 9th ed.
  Minimum Anti-inflammatory Dosage: 200 mg

## CC(C(=O)O)c1cccc(Oc2ccccc2)c1 (stereo not shown) [Fenoprofen]
inflammation; Goodman and Gilman, 9th ed.
  Minimum Anti-inflammatory Dosage: 300 mg

## CC(C(=O)O)c1ccc(-c2ccccc2)c(F)c1 (stereo not shown) [Flurbiprofen]
inflammation; Goodman and Gilman, 9th ed.
  Minimum Anti-inflammatory Dosage: 50 mg

## CC(C(=O)O)c1cccc(C(=O)c2ccccc2)c1 (stereo not shown) [Ketoprofen]
inflammation; Goodman and Gilman, 9th ed.
  Minimum Anti-inflammatory Dosage: 150 mg

## O=C(c1ccccc1)c1ccc2n1CCC2C(=O)O (stereo not shown) [Ketorolac]
inflammation; Goodman and Gilman, 9th ed.
  Minimum Anti-inflammatory Dosage: 5 mg

## COc1ccc2cc(CCC(C)=O)ccc2c1 [Nabumetone]
inflammation; [20]
  Minimum Anti-inflammatory Dosage: 500 mg

## O=C(O)CCc1nc(-c2ccccc2)c(-c2ccccc2)o1 [Oxaprozin]
inflammation; Goodman and Gilman, 9th ed.
  Minimum Anti-inflammatory Dosage: 600 mg

## CN1C(C(=O)Nc2ccccn2)=C(O)c2ccccc2S1(=O)=O [Piroxicam]
inflammation; [20]
  Minimum Anti-inflammatory Dosage: 10 mg

## CC1=C(CC(=O)O)c2cc(F)ccc2/C1=C\c1ccc([S+](C)[O-])cc1 (stereo not shown) [Sulindac]
inflammation; Goodman and Gilman, 9th ed.
  Minimum Anti-inflammatory Dosage: 150 mg

## Cc1ccc(C(=O)c2ccc(CC(=O)O)n2C)cc1 [Tolmetin]
inflammation; [20]
  Minimum Anti-inflammatory Dosage: 400 mg

## CC(=O)Oc1ccccc1C(=O)O [aspirin]
[1]; 40 mg aspirin 1 hour prior to 500 mg immediate release nicotinic acid, all three subjects
  subjective sensation: subjective sensation of cutaneous warmth
[1]; 40 mg aspirin 1 hour prior to single 500 mg immediate release nicotinic acid, all three subjects
  flushing: severe flushing
[1]; 40 mg aspirin each of four days, 500 mg nicotinic acid on fourth day 1 hour after aspirin, two of three subjects
  flushing after multi-day aspirin pretreatment: virtually no flushing
[1]; 40 mg aspirin each of four days, 500 mg nicotinic acid on fourth day, third subject
  flushing after multi-day aspirin pretreatment, third subject: some flushing, but less than that encountered previously
[2]; 40 mg aspirin each of four days, 500 mg nicotinic acid on fourth day (FIG. 2)
  urinary excretion of PGD-M after multi-day aspirin: much lower
PGF2 release
  release of PGF2 after aspirin pretreatment: approximately 10 % of baseline
[3]; 40 mg aspirin bid three days, fourth day 500 mg immediate release nicotinic acid with 40 mg aspirin, three subjects
  flushing, bid aspirin pretreatment: None of the subjects experienced any appreciable flushing
[4]; THP-1, read-out: IC50, inhibition of niacin-stimulated release of PG from THP-1 cells
  IC50: ~380 nM and ~0.07 µg/mL
[5]; 325 mg aspirin 1/2 hour before 500 mg immediate release niacin, third subject
  flushing, aspirin 1/2 hour before niacin, third subject: severe flushing
[5]; 325 mg aspirin 1/2 hour before 500 mg immediate release niacin, two subjects
  flushing, aspirin 1/2 hour before niacin: flushing, though slightly diminished
[5]; 325 mg aspirin 1/2 hour before niacin, compared with SR aspirin for 6 hours, three subjects
  side effects from niacin versus sustained release aspirin predosing: significantly greater side effects
[6]; aspirin 81 mg bid three days then 500 mg nicotinic acid + 81 mg aspirin vs placebo then niacin, p = 0.0001 (paired t test)
  AUCflux: 3022.5 + 2772
[6]; p = 0.002 (paired t test)
  Flushing duration: 15.8 ± 16 min
[7]
  Local T° change: 0.61 ± 0.56 °C
[8]
  Rating of Flushing by Subject: Mild: 4
  Rating of Flushing by Subject: Moderate: 1
  Rating of Flushing by Subject: None: 6
  Rating of Flushing by Subject: Severe: 3
  Rating of Flushing by Subject: Very severe: 0
[9]
  Rating of Flushing by Investigator: Mild: 2
  Rating of Flushing by Investigator: Moderate: 3
  Rating of Flushing by Investigator: None: 8
  Rating of Flushing by Investigator: Severe: 1
  Rating of Flushing by Investigator: Very severe: 0
[10]
  inhibition of synthesis of PGs such as E2 and F2, concentrations: high micromolar
[11]
  inhibition of nicotinic acid-induced flush (increase in ear temperature): inhibited
[12]
  reduction of cutaneous flush: significantly reduce cutaneous flush
[13]; 80 mg aspirin 30 minutes prior to niacin, compared to placebo
  niacin-associated flushing, warmth, itching and tingling, 80 mg aspirin: even more aggravated flushing, warmth, itching and tingling
[13]; [21]
  niacin-associated warmth, flushing, itching and tingling, 325 mg aspirin: decrease the warmth and flushing associated with niacin, but not the itching and tingling
  patients with flushing and warmth: at least 72 % of the patients
Platelet aggregation; [22]
  patients with complete inhibition of platelet aggregation: 288 patients
  patients with partial inhibition of platelet aggregation: 78 patients
Platelet aggregation; of 52 patients, dosage escalation or fluctuation of response
  patients with initial partial inhibition achieving complete inhibition: 35
Platelet aggregation; of the 35
  patients reverted to partial inhibition on further testing: 8
Platelet aggregation; repeat testing, without change in aspirin dosage
  patients converted from complete to partial inhibition: about 33%
inflammation; [20]
  Minimum Anti-inflammatory Dosage: 325 mg

## O=C(O)c1ccccc1Nc1cccc(C(F)(F)F)c1 [flufenamic acid]
[10]
  inhibition of synthesis of PGs such as E2 and F2, concentrations: high micromolar

## CC(C)Cc1ccc(C(C)C(=O)O)cc1 (stereo not shown) [ibuprofen]
[10]
  inhibition of synthesis of PGs such as E2 and F2, concentrations: high micromolar

## COc1ccc2c(c1)c(CC(=O)O)c(C)n2C(=O)c1ccc(Cl)cc1 [indomethacin]
[4]; THP-1, read-out: IC50, PG production in THP-1 cells
  IC50: ~1 nM
[4]; THP-1 versus other cells
  sensitivity of THP-1 cells relative to other cells: approximately 1000 times
[14]
  inhibitory concentrations on PG production in other cell types: micromolar range
[10]
  inhibition of synthesis of PGs such as E2 and F2, concentrations: high micromolar
[11]
  inhibition of nicotinic acid-induced flush (increase in ear temperature): inhibited
inflammation; [20]
  Minimum Anti-inflammatory Dosage: 25 mg

## COc1ccc2cc([C@H](C)C(=O)O)ccc2c1 [naproxen]
[10]
  inhibition of synthesis of PGs such as E2 and F2, concentrations: high micromolar
inflammation; [20]
  Minimum Anti-inflammatory Dosage: 250 mg

## O=C(O)c1cccnc1 [niacin, nicotinic acid]
[2]; 500 mg nicotinic acid 1 hour after single 40 mg aspirin, over 7 hours (FIG. 1)
  excretion of PGD-M in urine: significant amounts
[3]; single 500 mg dose without aspirin, all three subjects
  flushing, nicotinic acid without aspirin: severe flushing
[4]; FIG. 4
  in vitro release of PGs from THP-1: stimulate in vitro release of PGs
[15]
  metabolites of PGD2 in urine: increased amounts
  metabolites of leukotriene in urine: increased amounts
  metabolites of thromboxane in urine: increased amounts
[16]
  release of 9a, 11b-PGF2: increased the release
  release of thromboxane (TxB2): did not release
[17]
  in vitro release of PGs from human circulating monocytes: stimulate in vitro release of PGs
[18]
  patients who cease taking nicotinic acid: 30-40 % of patients
[19]; after 6 days of continuous, twice daily administration
  level of prostaglandin F2 on repeated administration: decreases markedly
[19]; following administration of niacin
  concentration of prostaglandin F2 in blood coming from the skin: dramatic rise

## CCCCC1C(=O)N(c2ccccc2)N(c2ccccc2)C1=O [phenylbutazone]
[10]
  inhibition of synthesis of PGs such as E2 and F2, concentrations: high micromolar

From patent US5981555A, “Compositions, kits and methods for administration of antilipemic drugs” (Lipoprotein Technologies, Inc., priority 1997, dated 1999)
